Patent US9914969B2, “Fads regulation” (CORNELL UNIVERSITY, priority 2012, dated 2018)
Entries after “also recorded” stand apart in the source; their conditions may differ.

Tests used:
[1] = test system: FADS1 expression; test: FADS1 expression in lymphoblasts after drug treatment (qRT-PCR); assay type: cell-based, human; conditions: 24 hours; for FADS1 response to drug, D/D vs I/I haplotype homozygotes (in words): lymphoblasts, 1 μNI GW3965, 20 μM rosiglitazone
Description: Immortalized B-lymphocyte (lymphoblast) cell lines from Japanese HapMap participants were obtained from the Coriell Institute for Medical Research, and used within 10 passages of receipt from the repository. Cells were grown in RPMI 1640 with 2 mM L-alanyl-glutamine (Sigma) and 15% fetal bovine serum (media and serum obtained from HyClone) in a humidified environment at 37° C. with 5% CO2. All experiments were conducted on cells grown and treated in parallel in identical media and growth conditions. […] RNA was extracted using the RNeasy kit (Qiagen), and RNA quality was checked by agarose gel electrophoresis to verify RNA integrity and by 260/280 nm ratios on a NanoDrop 2000 (Thermo Scientific). cDNA was prepared using the High Capacity cDNA Reverse Transcription Kit (Applied Biosystems) according to the manufacturer's protocol.
(§1) Quantitative real-time PCR was carried out using SYBR Green Master Mix (Roche) on a LightCycler 480 instrument (Roche). PCR primers were obtained from Integrated DNA Technologies (sequences available upon request), except for 18S, which was obtained from Qiagen as a QuantiTect Primer Assay. PCR reaction efficiency was calculated from standard curves, and reactions were assessed by both melting curves and by running on agarose gels to verify reaction products and the absence of primer-dimers. Quantitative cycle (Cq) values were determined using LightCycler 480 SW1.5.0SP3 software, version 1.5.0.39 (Roche). […] Statistical significance of differences in fold changes between genotypes in response to cell treatments (normalized to vehicle treatment for each genotype) was assessed by the Mann-Whitney U test. Bootstrapping and randomization techniques were used in REST 2009 software (Qiagen) to calculate significance of fold changes normalizing both genotypes to basal expression in I/I allele homozygotes.
Follow-up experiments were carried out in Japanese HapMap lymphoblast cell lines homozygous for the D/D haplotype associated with FADS1 expression, or homozygous for the I/I haplotype. All available D/D haplotype homozygote cell lines were used (n=5), as well as randomly chosen I/I allele homozygote cell lines (n=11).
To investigate the possibility of a causal genetic variation in a transcription factor binding site, cells were treated with drugs acting directly or indirectly on PPARγ or SREBP-1c.

[2] = test system: FADS2 expression; test: FADS2 expression in lymphoblasts after drug treatment (qRT-PCR); assay type: cell-based, human; conditions: 24 hours
Description: Immortalized B-lymphocyte (lymphoblast) cell lines from Japanese HapMap participants were obtained from the Coriell Institute for Medical Research, and used within 10 passages of receipt from the repository. Cells were grown in RPMI 1640 with 2 mM L-alanyl-glutamine (Sigma) and 15% fetal bovine serum (media and serum obtained from HyClone) in a humidified environment at 37° C. with 5% CO2. All experiments were conducted on cells grown and treated in parallel in identical media and growth conditions. […]
as §1, with “Bootstrapping and randomization techniques were used in REST 2009 software (Qiagen) to calculate significance of fold changes normalizing both genotypes to basal expression in I/I allele homozygotes.” left out

[3] = 5 μNI simvastatin, normalized to vehicle

SMILES	upregulation (induction) of FADS1 higher for the D/D haplotype than for I/I ([1]; D/D vs I/I haplotype homozygote lymphoblasts, 5 μNI simvastatin, 1 μNI GW3965) [%]	final FADS1 expression after treatment, difference between genotypes (in words) ([1]; D/D vs I/I lymphoblasts, normalized to basal I/I expression)	upregulation of FADS1 ([1]; I/I haplotype homozygote lymphoblasts, 5 μNI simvastatin, 1 μNI GW3965, normalized to vehicle)	FADS1 response to drug, D/D vs I/I haplotype homozygotes (in words) [1, 3]	FADS2 expression increase in D/D haplotype homozygotes compared with I/I (in words) ([2]; lymphoblasts, normalized to vehicle)	FADS2 response to treatment (in words) ([2]; I/I and D/D lymphoblasts, 20 μM rosiglitazone)
O=C(O)Cc1cccc(OCCCN(Cc2cccc(C(F)(F)F)c2Cl)CC(c2ccccc2)c2ccccc2)c1 [GW3965]	25	did not significantly differ; also recorded: no longer significantly different	about two	significantly greater fold increase	even more	–
CN(CCOc1ccc(CC2SC(=O)NC2=O)cc1)c1ccccn1 (stereo not shown) [rosiglitazone]	–	–	–	no response	–	no response
